We go through 3 compounds from patent US11229675B2, “Therapeutic peptides for excitatory neurotoxicity-related injuries” (Biocells (Beijing) Biotech Co., Ltd., priority 2016, dated 2022).

Data set [1] relates to MCAO model rats. As to the kind of experiment: HE staining for histological changes in brains of MCAO rats. The note with it: therapeutic and prophylactic administration, 10 mg/kg, 24 h after ischemia. The format is in vivo, rat. On the procedure:
The rats in each group were decapitated at 24 h after ischemia, and the resultant brain was coronally sectioned near the optic chiasm with a thickness of about 4 mm. The sections were fixed with 10% formalin solution and dehydrated with alcohol with a concentration gradient from 70% to 100%. The sections were permeabilized twice in xylene, and embedded in paraffin. The paraffin block was carefully trimmed, and immobilized on a paraffin slicing machine, and sliced to sections with a thickness of 4 μm. The paraffin sections were completely unfolded, attached to a clean and dry glass slide, and stored in a refrigerator at 4° C. Conventional HE staining was performed, and the staining results were observed by light microscopy.

Data set [2] relates to MCAO model rats. Nature of the data set: Cerebral infarction volume (TTC staining) in MCAO model rats. To be noted: rat, in vivo. The procedure:
The focal cerebral ischemia-reperfusion model was prepared according to the reversible middle cerebral artery occlusion (MCAO) suture method proposed by Longa with modifications in view of the anatomical structure of the rat brain. The rats were anesthetized by intraperitoneal administration of 10% chloral hydrate at a dose of […]. After anesthetization, a cut was created at the cervical midline, and the common carotid artery (CCA), external carotid artery (ECA) and pterygopalatine artery were exposed. The head portion (0.5 cm) of a monofilament nylon fishing line (0.26 mm) was coated with paraffin and a mark was made at 20 mm. All rats were inserted through the right CCA incision, and the pterygopalatine artery was temporarily clamped to prevent mis-insertion. The length of the occlusion line was about 18-20 mm from the bifurcation of CCA depending on the animal's weight, thereby occluding middle cerebral artery on the right side. The skin was then sewed, and the tail end of the occlusion line was partially fixed to the skin. After a period of ischemia for 2 hours, the occlusion line was carefully pulled out to form a reperfusion. The procedure steps for the sham control were the same as the surgery group, except for insertion of a nylon fishing line. The body temperature was maintained at 37±0.5° C. during the ischemia period and 2 h after reperfusion.
The used animals were male adult SD rats (Vittalia) of SPF grade with body weight of 220-250 g.
No drugs were administered to the normal group and the sham group.
The rats were sacrificed by decapitation after scoring. The brain tissues were quickly removed and placed in a refrigerator at −20° C. After 10 minutes, the tissues were placed in a room temperature environment. The brains were placed in a rat brain section mold. After the olfactory bulb, cerebellum and low brain stem were removed, the brains were coronally cut five times at 2 mm thickness as shown in the profile to obtain six continuous raw coronal slices. Then, the brain sections were quickly placed in a 5 ml solution containing 2% TTC, and incubated at 37° C. for 30 minutes in the dark, during which the brain sections were flipped once every 5 minutes. With the TTC staining, the normal tissue would be rose red, and the infarcted tissue would be unstained and retained white. Each group of brain sections was arranged neatly, and photographed. The photos were processed by an image analysis system software and statistically analyzed. The infarction area of each brain section was calculated, and multiplied by the thickness of each brain section (2 mm). The products of the infarction area of individual brain section multiplied by the thickness were summed to obtain the cerebral infarction volume for each animal. The volumes were expressed as percentages accounting for the cerebral hemisphere to eliminate the effects of cerebral edema.

Another data set relates to rats. As to the kind of experiment: Acute toxicity test on rats. The note with it: 200 mg/kg body weight. The format is in vivo, rat. On the procedure: Acute toxicity tests were performed on rats.

Several values for one entry are separate records, joined by “and”; a condition that tells them apart may be missing. Equal values may be shown once. Where no end group is shown, it is not given here.

`CC[C@H](C)[C@H](NC(=O)[C@H](CCC(=O)O)NC(=O)[C@@H](NC(=O)[C@H](CC(=O)O)NC(=O)[C@H](CC(C)C)NC(=O)[C@H](CC(C)C)NC(=O)[C@H](CCCCN)NC(=O)[C@H](CCC(=O)O)NC(=O)[C@H](Cc1ccc(O)cc1)NC(=O)[C@H](CCCNC(=N)N)NC(=O)[C@H](CCCNC(=N)N)NC(=O)[C@H](CCCNC(=N)N)NC(=O)[C@H](CCC(N)=O)NC(=O)[C@H](CCCNC(=N)N)NC(=O)[C@H](CCCNC(=N)N)NC(=O)[C@H](CCCCN)NC(=O)[C@H](CCCCN)NC(=O)[C@H](CCCNC(=N)N)NC(=O)CNC(=O)[C@@H](N)Cc1ccc(O)cc1)[C@@H](C)O)C(=O)O` [P5]: in the data set on MCAO model rats [1], the “pathological changes of brain tissue (HE staining)” value was “significantly improved”. Besides, the “Mean of infarction volume percentage” value was 24.84% and 36.54% and 43.22% in the data set on MCAO model rats [2]; 44.23% in the data set with MCAO model rats [2] (1 mg/kg); 35.66% in the data set with MCAO model rats [2] (3 mg/kg); 19.54% in the data set with MCAO model rats [2] (10 mg/kg). The “Reduction of infarction volume percentage vs model group” value with MCAO model rats [2] (1 mg/kg) is given as 3.76%; with MCAO model rats [2] (3 mg/kg), 22.41%; with MCAO model rats [2] (10 mg/kg), 57.48%. In the data set on MCAO model rats [2] (3 mg/kg), the “effect on cerebral infarction volume” value is reported as “desirably reduced the cerebral infarction volume”. In addition, in the data set with MCAO model rats [2] (10 mg/kg), the “reduction of cerebral infarction volume” value is recorded as “about 50%”. Further, in the data set with rats, the acute toxicity entry was “no lethal effect and other obvious toxic side effects”.

As for “YGRKKRRQRRRKLSSIESDV [NA-1, reference compound]”, the “Mean of infarction volume percentage” value with MCAO model rats [2] came to 38.56%.

With “YGRKKRRQRRRYEKLSSIESDV [YE-NA-1, reference compound]”, the “Mean of infarction volume percentage” value with MCAO model rats [2] is on record as 33.96%.
